Tested on: HBV
Test: HBV replication inhibition assay (BDNA assay) in HepG2.2.15 cells
Assay type: cell-based
Details: HBV replication assay (BDNA assay), HepG2.2.15 cells; read-out: DNA EC50
Summary of the method: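 HepG2.2.15 cells with stably integrated HBV were treated with serially diluted compounds at 0.5% DMSO for 6 days, with medium and compound refreshed at day 3. Encapsidated HBV DNA from DNase-treated supernatant was quantified by branched DNA assay. EC50 came from % inhibition versus DMSO, fitted non-linearly.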

Compound	EC50 [µM]
C[C@@H]1Cc2nn3c(c2CN1C(=O)Nc1ccc(F)c(C#N)c1)C(=O)N(C)OC(CO)C3 (stereo in doubt) [Compound 084_E2, (4R*,9R)—N-(3-cyano-4-fluorophenyl)-4-(hydroxymethyl)-2,9-dimethyl-1-oxo-1,4,5,8,9,11-hexahydropyrido[4′,3′:3,4]pyrazolo [5,1-d][1,2,5]oxadiazepine-10(2H)-carboxamide]	0.001 to 0.1

Same assay, conditions: Hepatitis B virus, HepG2.2.15, HBV replication assay (BDNA assay), HepG2.2.15 cells; read-out: DNA EC50

Compound	EC50 [µM]
CC1CCCC(NC(=O)N2CCc3nn4c(c3C2)C(=O)N(C)OC(CO)C4)C1 (stereo not shown) [Compound 019, 4-(hydroxymethyl)-2-methyl-N-(3-methylcyclohexyl)-1-oxo-1,4,5,8,9,11-hexahydropyrido[4′,3′:3,4]pyrazolo[5,1-d][1,2,5]oxadiazepine-10(2H)-carboxamide]	0.5 to 1
CN(C)C(=O)NCC1Cn2nc3c(c2C(=O)N(C)O1)CN(C(=O)Nc1ccc(F)c(Cl)c1)CC3 (stereo not shown) [Compound 204, N-(3-chloro-4-fluorophenyl)-4-((3,3-dimethylureido)methyl)-2-methyl-1-oxo-1,4,5,8,9,11-hexahydropyrido[4′,3′:3,4]pyrazolo[5,1-d][1,2,5]oxadiazepine-10(2H)-carboxamide]	0.001 to 0.1
CN1OC(CF)Cn2nc3c(c2C1=O)CN(C(=O)Nc1ccc(F)c(C#N)c1)CC3 (single isomer, unassigned) [Compound 042_E1, (S*)—N-(3-cyano-4-fluorophenyl)-4-(fluoromethyl)-2-methyl-1-oxo-1,4,5,8,9,11-hexahydropyrido[4′,3′:3,4]pyrazolo[5,1-d][1,2,5]oxadiazepine-10(2H)-carboxamide]	0.001 to 0.1
CN1OC(CO)Cn2nc3c(c2C1=O)CN(C(=O)Nc1cc(Cl)c(F)c(C(F)(F)F)c1)CC3 (stereo not shown) [Compound 022, N-(3-chloro-4-fluoro-5-(trifluoromethyl)phenyl)-4-(hydroxymethyl)-2-methyl-1-oxo-1,4,5,8,9,11-hexahydropyrido[4′,3′:3,4]pyrazolo[5,1-d][1,2,5]oxadiazepine-10(2H)-carboxamide]	0.001 to 0.1
CC(=O)NCC1Cn2nc3c(c2C(=O)N(C)O1)CN(C(=O)Nc1ccc(F)c(C#N)c1)CC3 (single isomer, unassigned) [Compound 168_E1, (S*)-4-(acetamidomethyl)-N-(3-cyano-4-fluorophenyl)-2-methyl-1-oxo-1,4,5,8,9,11-hexahydropyrido[4′,3′:3,4]pyrazolo[5,1-d][1,2,5]oxadiazepine-10(2H)-carboxamide]	0.001 to 0.1
C[C@H]1Cc2nn3c(c2CN1C(=O)Nc1ccc(F)c(Cl)c1)C(=O)N(C)O[C@@H](CO)C3 (stereo in doubt) [Compound 069_E2, (4R*,9S*)—N-(3-chloro-4-fluorophenyl)-4-(hydroxymethyl)-2,9-dimethyl-1-oxo-1,4,5,8,9,11-hexahydropyrido[4′,3′:3,4]pyrazolo[5,1-d][1,2,5]oxadiazepine-10(2H)-carboxamide]	0.001 to 0.1
CN1OC(COC(F)(F)F)Cn2nc3c(c2C1=O)CN(C(=O)Nc1ccc(F)c(Cl)c1)CC3 (stereo not shown) [Compound 128, N-(3-chloro-4-fluorophenyl)-2-methyl-1-oxo-4-((trifluoromethoxy)methyl)-1,4,5,8,9,11-hexahydropyrido[4′,3′:3,4]pyrazolo[5,1-d][1,2,5]oxadiazepine-10(2H)-carboxamide]	0.001 to 0.1
Cc1cc(NC(=O)N2Cc3c(nn4c3C(=O)N(C)OC(CF)C4)C[C@H]2C)ccc1F (stereo in doubt) [Compound 086_E1, (4S*,9R)—N-(4-fluoro-3-methylphenyl)-4-(fluoromethyl)-2,9-dimethyl-1-oxo-1,4,5,8,9,11-hexahydropyrido[4′,3′:3,4]pyrazolo[5,1-d][1,2,5]oxadiazepine-10(2H)-carboxamide]	0.001 to 0.1
CC[C@H]1Cc2nn3c(c2CN1C(=O)Nc1ccc(F)c(Cl)c1)C(=O)N(C)O[C@H](CO)C3 (stereo in doubt) [Compound 109_D1, (4S*,9S*)—N-(3-chloro-4-fluorophenyl)-9-ethyl-4-(hydroxymethyl)-2-methyl-1-oxo-1,4,5,8,9,11-hexahydropyrido[4′,3′:3,4]pyrazolo[5,1-d][1,2,5]oxadiazepine-10(2H)-carboxamide]	0.1 to 0.5

From patent US10987359B2, “Oxadiazepinone derivatives and methods of treating hepatitis B infections” (priority 2016, dated 2021)
